Converted amounts (≈) assume the structure as drawn.
How the values were obtained:
[1] = test system: HCT116 cells; experiment: XTT cytotoxicity assay, HCT116 (H); type: cell-based; conditions: Homo sapiens, HCT-116
Method: (§1) XTT Cytotoxicity Assay The XTT assay is a non-radioactive alternative for the [^51Cr] release cytotoxicity assay. XTT is a tetrazolium salt that is reduced to a formazan dye only by metabolically active, viable cells. The reduction of XTT is measured spectrophotometrically as OD490-OD650. To measure the cytotoxicity of specific compounds against cancer cells, 9×10^3 MCF-7 human breast cancer cells (shown in the tables as “(M)”), obtained from the American Type Culture Collection are plated per well in 96 well plates in DMEM medium with 10% fetal bovine serum, insulin, penicillin, and streptomycin. Following overnight culture at 37° C. and 5% CO2, the compounds to be tested, dissolved in DMSO, are added to the wells in 1 μl volume at the following concentrations: 80, 40, 20, 10, 5, 2.5, 1.25, and 0.625 μg/ml in triplicate. Additional concentrations are tested if required. 1 μl of DMSO is added to triplicate wells are the vehicle control. C75 is run at 40, 20, […], and 5 μg/ml in triplicate as positive controls. After 72 hours of incubation, cells are incubated for 4 hours with the XTT reagent as per manufacturer's instructions (Cell Proliferation Kit II (XTT) Roche). Plates are read at OD490 and OD650 on a Molecular Devices SpectraMax Plus Spectrophotometer. Three wells containing the XTT reagent without cells serve as the plate blank. XTT data are reported as OD490-OD650. Averages and standard error of the mean are computed using SOFTmax Pro software (Molecular Dynamics). The IC50 for the compounds is defined as the concentration of drug leading to a 50% reduction in OD490-OD650 compared to controls. The OD490-OD650 are computed by the SOFTmax PRO software (Molecular Devices) for each compound concentration. IC50 is calculated by linear regression, plotting the FAS activity as percent of control versus drug concentrations. Linear regression, best-fit line, r^2, and 95% confidence intervals are determined using Prism Version 3.0 (Graph Pad Software). The test was also run against OVCAR3 cells (“OV”), and HCT116 cells (“H”).

[2] = test system: MCF-7 human breast cancer cells; experiment: XTT cytotoxicity assay, MCF-7 (M); type: cell-based; conditions: MCF7, MCF-7, 72 hours
Method: XTT Cytotoxicity Assay The XTT assay is a non-radioactive alternative for the [^51Cr] release cytotoxicity assay. XTT is a tetrazolium salt that is reduced to a formazan dye only by metabolically active, viable cells. The reduction of XTT is measured spectrophotometrically as OD490-OD650. To measure the cytotoxicity of specific compounds against cancer cells, 9×10^3 MCF-7 human breast cancer cells (shown in the tables as “(M)”), obtained from the American Type Culture Collection are plated per well in 96 well plates in DMEM medium with 10% fetal bovine serum, insulin, penicillin, and streptomycin. Following overnight culture at 37° C. and 5% CO2, the compounds to be tested, dissolved in DMSO, are added to the wells in 1 μl volume at the following concentrations: 80, 40, 20, 10, 5, 2.5, 1.25, and 0.625 μg/ml in triplicate. Additional concentrations are tested if required. 1 μl of DMSO is added to triplicate wells are the vehicle control. C75 is run at 40, 20, […], and 5 μg/ml in triplicate as positive controls. After 72 hours of incubation, cells are incubated for 4 hours with the XTT reagent as per manufacturer's instructions (Cell Proliferation Kit II (XTT) Roche). Plates are read at OD490 and OD650 on a Molecular Devices SpectraMax Plus Spectrophotometer. Three wells containing the XTT reagent without cells serve as the plate blank. XTT data are reported as OD490-OD650. Averages and standard error of the mean are computed using SOFTmax Pro software (Molecular Dynamics). The IC50 for the compounds is defined as the concentration of drug leading to a 50% reduction in OD490-OD650 compared to controls. The OD490-OD650 are computed by the SOFTmax PRO software (Molecular Devices) for each compound concentration. IC50 is calculated by linear regression, plotting the FAS activity as percent of control versus drug concentrations. Linear regression, best-fit line, r^2, and 95% confidence intervals are determined using Prism Version 3.0 (Graph Pad Software).

[3] = test system: OVCAR3 cells; experiment: XTT cytotoxicity assay, OVCAR3 (OV); type: cell-based; conditions: Homo sapiens, OVCAR-3, unit given as ml
Method: as §1

[4] = Weight loss screen; type: in vivo, Balb/C mice; conditions: 60 mg/ml (so in the source), day 1
Method: Weight Loss Screen Balb/C mice (Jackson Labs) are utilized for the initial weight loss screening. Animals are housed in temperature and 12 hour day/night cycle rooms and fed mouse chow and water ad lib. Three mice are utilized for each compound tested with vehicle controls in triplicate per experiment. For the experiments, mice are housed separately for each compound tested three mice to a cage. Compounds are diluted in DMSO at 10 mg/ml and mice are injected intraperitoneally with 60 mg/kg in approximately 100 μl of DMSO or with vehicle alone. Mice are observed and weighed daily; average weights and standard errors are computed with Excel (Microsoft). The experiment continues until treated animals reach their pretreatment weights.

[5] = Solubility problem noted during the assays; type: physicochemical; conditions: noted under the 14C column, unit inferred; read-out: Sol Prob (solubility problem at concentration)
[6] = test system: MCF-7 human breast cancer cells (fatty acid oxidation pathway activity); experiment: Fatty acid oxidation ([14C]palmitate to acid soluble products); type: cell-based
Method: Measurement of Fatty Acid Oxidation and Determination of SC150 of Compounds This assay measures the degradation of [^14C]palmitate into acid soluble products and is a measure of fatty acid oxidation pathway activity in vitro. It is utilized to measure fatty acid oxidation in vitro. MCF-7 human breast cancer cells cultured as above, are plated at 2.5×10^5 cells per well in 24-well plates. Following overnight incubation, the compounds to be tested, solubilized in DMSO, are added at […], 0.39, 1.56, 6.25, 25, and 100 μg/ml in triplicate, with lower concentrations tested if necessary. DMSO is added to triplicate wells for a vehicle control. C75 is run at 5 and 10 μg/ml in triplicate as positive controls. After 1 hour of incubation, medium is removed 100 uM of [^14C] palmitate in cyclodextran and 200 uM carnitine in serum free medium (250 μl volume) is added to each well. After 30 minutes of additional incubation, the reaction is stopped by addition of 2.6N HClO4. Contents of each well are transferred to 1.5 ml Eppendorf tubes and 4N KOH is added. The tubes are incubated for 30 minutes at 60° C. 1 M NaAcetate and 3N H2SO4 is added to each tube and vortexed. The tubes are centrifuged at 1000 rpm for 5 minutes at RT. 250 μl of the supernatant is transferred to a 2 ml eppendorf tube. To each tube is added: 938 μl of chloroform:methanol (1:1), 468 μl chloroform and 281 μl of deionized water. The tubes are vortexed and centrifuged at 1000 rpm for 5 minutes at RT. 750 μl of the upper phase is transferred into a scintillation vial 5 ml of scintillant is added and vials are counted for 1 minute for ^14C. The Beckman Scintillation counter calculates the average cpm values for triplicates. The SC150 for the compounds is defined as the concentration of drug leading to a 150% increase in production of acid soluble products of [^14C] palmitate as compared to untreated controls. This is determined by plotting the average cpm for each inhibitor concentration tested, performing linear regression and computing the best-fit line, r^2 values, and 95% confidence intervals. The average cpm values are computed by the Beckman scintillation counter (Model LS6500) for each compound concentration. Computation of linear regression, best-fit line, r^2, and 95% confidence intervals are calculated using Prism Version 3.0 (Graph Pad Software). If a compound fails to achieve this 150% threshold it is considered negative. The maximum value achieved is also reported (FAO Max).

[7] = test system: Vero cells; conditions: cited from earlier work
[8] = molecular target: rat liver acyl-CoA synthetase; conditions: read-out: 50% inhibition of rat liver acyl-CoA synthetase (converted); cited from earlier work
[9] = test system: Raji cells; conditions: cited from earlier work
[10] = test system: Hela cells; conditions: cited from earlier work
[11] = molecular target: viral HIV protease (Human immunodeficiency virus type 1 group M subtype B, UniProt P04585); conditions: cited from earlier work

CCCCCCCCC1(C)SC(=O)C=C1OCC(=O)Nc1ccc(F)cc1 (stereo not drawn)
IC50 [1]: 5.6 µg/mL (≈ 14.2 µM)
IC50 [2]: 6.5 µg/mL (≈ 16.5 µM)
IC50 [3]: 11.1 µg/mL (≈ 28.2 µM)
Weight Loss [4]: 60 mg/ml: 2.4% (day 1)
solubility [5]: 80 µg/mL (≈ 203 µM)
Emax at 1.56 µg/mL ([6]; Homo sapiens, MCF7, at 1.56 μg/ml, read-out: FAO Max): 106%
FAO SC 150 ([6]; concentration leading to 150% of control acid soluble products, Neg = threshold not reached): Neg

CCCC=CCC=CC=CC=NN=NO [Triacsin C, 1-hydroxy-3-(E,E,E-2′,4′,7′-undecatrienylidine) triazene]
growth inhibition of Vero cells [7]: inhibit growth
IC50 [8]: 8.7 µM
growth inhibition in Raji cells [9]: growth inhibition
growth inhibition of Hela cells [10]: inhibit growth

C/C=C/C/C=C/CCC(=O)[C@H]1O[C@H]1C(N)=O [cerulenin, (2S,3R)-2,3-epoxy-4-oxo-7,10 dodecadienoyl amide]
concentration at which viral HIV protease is inhibited [11]: 5 mg/mL

Source: patent US20110288052A1, “NOVEL COMPOUNDS, PHARMACEUTICAL COMPOSITIONS CONTAINING SAME, AND METHODS OF USE FOR SAME” (priority 2008, published 2011)
